These results are taken from patent US20110230504A1, “ALLEVIATING DISORDERS WITH COMBINING AGENTS THAT INCREASE EPOXYGENATED FATTY ACIDS AND AGENTS THAT INCREASE cAMP” (The Regents Of The University Of California Office Of …, priority 2008, published 2011).

Data set [1] deals with peripheral benzodiazepine receptor (PBR, TSPO) (Rattus norvegicus, UniProt P16257). In words: Displacement of [3H] PK11195 from TSPO (rat heart mitochondria, CEREP). The conditions noted are these: methyl ester forms. (In general: Loss of bound radioactivity is the signal in a displacement assay; it reports binding, not function.)
Data set [2] can be described thus: Metabolic stability and pharmacokinetics of sEH inhibitors (statements).
Another data set addresses T1, sEH (Homo sapiens, UniProt P34913).
T1 sequence (P34913 1-555): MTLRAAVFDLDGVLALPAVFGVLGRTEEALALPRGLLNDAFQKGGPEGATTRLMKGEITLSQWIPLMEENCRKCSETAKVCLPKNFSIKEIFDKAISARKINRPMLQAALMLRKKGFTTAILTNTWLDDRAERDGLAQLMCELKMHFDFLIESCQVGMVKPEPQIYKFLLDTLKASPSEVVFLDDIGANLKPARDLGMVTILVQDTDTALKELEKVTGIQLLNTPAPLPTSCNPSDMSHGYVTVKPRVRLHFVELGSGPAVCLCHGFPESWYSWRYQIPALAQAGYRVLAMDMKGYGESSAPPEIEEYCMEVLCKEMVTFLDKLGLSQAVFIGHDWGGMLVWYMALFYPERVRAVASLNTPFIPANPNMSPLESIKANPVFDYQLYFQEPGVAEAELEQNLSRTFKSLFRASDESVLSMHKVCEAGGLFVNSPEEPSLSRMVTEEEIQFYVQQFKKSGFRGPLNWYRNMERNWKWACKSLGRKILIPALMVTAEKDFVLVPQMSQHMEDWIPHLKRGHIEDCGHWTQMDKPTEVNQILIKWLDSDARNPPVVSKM
In words: Testing as sEH inhibitors (assay not specified). It counts as biochemical. From the text: Any of a number of standard assays for determining epoxide hydrolase activity can be used to determine inhibition of sEH. For example, suitable assays are described in Gill, et al., Anal Biochem 131:273-282 (1983); and Borhan, et al., Analytical Biochemistry 231:188-200 (1995)). Suitable in vitro assays are described in Zeldin et al., J. Biol. Chem. 268:6402-6407 (1993). Suitable in vivo assays are described in Zeldin et al., Arch Biochem Biophys 330:87-96 (1996). Assays for epoxide hydrolase using both putative natural substrates and surrogate substrates have been reviewed (see, Hammock, et al. In: Methods in Enzymology, Volume III, Steroids and Isoprenoids, Part B, (Law, J. H. and H. C. Rilling, eds. 1985), Academic Press, Orlando, Fla., pp. 303-311 and Wixtrom et al., In: Biochemical Pharmacology and Toxicology, Vol. 1: Methodological Aspects of Drug Metabolizing Enzymes, (Zakim, D. and D. A. Vessey, eds. 1985), John Wiley & Sons, Inc., New York, pp. 1-93. Several spectral based assays exist based on the reactivity or tendency of the resulting diol product to hydrogen bond (see, e.g., Wixtrom, supra, and Hammock. Anal. Biochem. 174:291-299 (1985) and Dietze, et al. Anal. Biochem. 216:176-187 (1994)).

Data set [3] concerns rats. In words: Intraplantar carrageenan inflammatory pain model, intrathecal sEHI. The conditions noted are these: intrathecal 0.1-3 μg. It counts as in vivo, rat. As for the experimental part: The study was approved by UC Davis Animal Care and Use Committee. Male Sprague-Dawley rats weighing 250-350 g were obtained from Charles River Inc. Two models of inflammatory pain and one model of diabetic neuropathic pain were used to test the effects of sEHI. The main inflammatory pain model used involved intraplantar LPS (10 μg/animal) administration as described previously (Inceoglu B et al., Life Sci 79:2311-2319 (2006)). Briefly, following baseline thermal withdrawal latency and mechanical withdrawal threshold determination LPS (in saline) was administered into one hind paw and nociceptive thresholds were monitored over time. The other inflammatory pain model involved intraplantar carrageenan (1% in saline, 50 μl) administration and was only used when sEHI was administered into the spinal cord. Intrathecal catheters were implanted according to Yaksh and Rudy (Yaksh T L and Rudy T A, Physiol Behav 17(6):1031-1036 (1976)). Following baseline nociceptive response measurements carrageenan was administered into one hind paw and responses were monitored over time and after intraspinal sEHI administration. […] In experiments in which EETs, sEHI and cAMP analogue was administered intraspinally animals were maintained under deep anesthesia and therefore nociceptive thresholds were not determined.

Data set [4] has as its system rats. In words: Thermal withdrawal latency, intraplantar LPS inflammatory pain model and non-inflamed controls. It counts as in vivo, rat. The conditions noted are these: for thermal withdrawal latency in the absence of inflammation: control rats, i.pl. saline.
The next data set concerns COX2 mRNA. In words: Spinal COX2 mRNA after intraplantar LPS, qRT-PCR. It counts as in vivo, rat. Conditions: rats. An excerpt: (§1) A purelink Micro to Midi total RNA purification kit (Invitrogen, CA) was used to extract RNA from whole spinal cord, adrenal gland and testis. For brain, the remaining caudal two thirds were sliced into two hemispheres from the midline and a coronal slice of 2 mm in thickness was taken for analysis. The RNA samples were quantified by spectrophotometry and converted to cDNA using a high capacity cDNA reverse transcription kit from Applied Biosystems (CA, USA). Taq-man probes for COX2 (Rn00568225_ml) StARD1 (Rn00580695_ml), ICER(Rn00569145_ml), Sst (Rn00561967_ml), sEH(Rn00576023_ml) genes were used according to manufacturer's instructions to quantify relative gene expression (Applied Biosystems). Experiments were performed in triplicate with GAPDH (glyceraldehyde 3-phosphate dehydrogenase message) serving as the endogenous control. Mean fold expression values from corresponding untreated animal tissues were used as calibrators.

For data set [5], the system named is StARD1 mRNA. In words: StARD1 mRNA in LPS inflamed rats, qRT-PCR. It counts as in vivo, rat.
Source text: as §1

For data set [6], the system named is StARD1 mRNA. In words: StARD1 mRNA 30 min after intraspinal 8-Br cAMP, EETs, AEPU in non-inflamed rats. Conditions: 8-Br cAMP 100 μg, EETs 5 μg, AEPU 1 μg. It counts as in vivo, rat. The procedure:
To investigate the cooperation between cAMP and EETs in the spinal cord, a membrane permeable cAMP analogue, 8-Br cAMP (100 μg), was administered into the spinal cord by lumbar puncture (between L4-L5) and rapid (30 min.) expression of StARD1 mRNA in the spinal cord and the brain was quantified by qRT-PCR. In these experiments animals were maintained under deep anesthesia.

Data set [7] relates to plasma oxylipins (EETs, DHETs, PGE2). In words: Plasma oxylipin analysis in LPS treated rats. Conditions: LPS treated rats, two hours. It counts as in vivo, rat. From the text:
Plasma was collected by cardiac puncture under deep anesthesia. Rats were anesthetized by isoflurane overdose and decapitated. Whole brains were immediately excised and flash frozen. […] Dorsal roots were excluded.

In data set [8] the test system is circulating testosterone and progesterone. In words: Circulating steroid hormone levels by RIA. It counts as in vivo, rat. Conditions: rats.
The nature of data set [9]: Brain, blood and plasma inhibitor levels, LC-ESI-MS/MS. Conditions: AEPU dermal, TPAU systemic administration.
The test system of data set [10] is rats. In words: Open field / motor activity. It counts as in vivo, rat. Conditions: rolipram 0.1 and TPAU 10 mg/kg.
In data set [11] the test system is StARD1 mRNA. In words: StARD1 expression after rolipram and TPAU, qRT-PCR. It counts as in vivo, rat. Conditions: rats. From the text:
Briefly, RNA from whole spinal cord, brain and adrenal gland samples were extracted using a purelink Micro to Midi total RNA purification kit (Invitrogen, CA). The RNA samples were quantified by spectrophotometry and converted to cDNA using a high capacity cDNA reverse transcription kit from Applied Biosystems (CA, USA). Taq-man probe for StARD1 (Rn00580695_ml) was used according to manufacturer's instructions to quantify relative gene expression (Applied Biosystems CA, USA). Experiments were performed in triplicate with glyceraldehyde 3-phosphate dehydrogenase gene serving as the endogenous control. Mean fold expression values from corresponding vehicle treated animal tissues were used as calibrators.
These findings encouraged us to investigate the expression of StARD1 message as a marker of steroidogenic activity. […] Adrenal StARD1 from the same animals was also monitored as a marker of peripheral steroidogenesis.
For orientation: Quantitative PCR measures a nucleic acid by following its amplification.

A further data set deals with T2, mouse sEH (Mus musculus, UniProt P34914).
T2 sequence (P34914 1-554): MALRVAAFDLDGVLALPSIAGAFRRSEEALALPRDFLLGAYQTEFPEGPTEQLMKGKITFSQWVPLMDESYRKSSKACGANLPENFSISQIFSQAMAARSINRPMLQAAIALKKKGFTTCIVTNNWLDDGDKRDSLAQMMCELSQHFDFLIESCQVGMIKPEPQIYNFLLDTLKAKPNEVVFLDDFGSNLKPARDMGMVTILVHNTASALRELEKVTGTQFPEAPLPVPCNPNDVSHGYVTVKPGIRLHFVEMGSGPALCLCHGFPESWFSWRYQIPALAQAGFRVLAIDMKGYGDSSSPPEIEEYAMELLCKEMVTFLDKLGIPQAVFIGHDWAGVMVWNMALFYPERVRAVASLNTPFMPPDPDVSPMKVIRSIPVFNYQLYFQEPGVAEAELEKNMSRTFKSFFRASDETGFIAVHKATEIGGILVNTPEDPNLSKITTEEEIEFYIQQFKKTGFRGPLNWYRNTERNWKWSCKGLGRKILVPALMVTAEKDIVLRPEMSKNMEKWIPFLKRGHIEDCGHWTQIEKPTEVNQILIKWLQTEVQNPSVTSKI
In words: biochemical.

Consider `CCCCC/C=C\C/C=C\CC1OC1C/C=C\CCCC(=O)O` (stereo not drawn) [8,9-EET], for which the “competition with radioligand [3H] PK11195 at TSPO” value in data set [1] is reported as “did not compete”.
On to `CCCCCCCCCCCCNC(=O)NC12CC3CC(CC(C3)C1)C2` [ADU, N-Adamantyl-N′-dodecyl urea], for which the metabolic stability result in data set [2] is “metabolically stable”. For the same compound, the “activity as inhibitor of sEH” value on sEH is recorded as “particularly high activity”.
For the compound `CCOCCOCCOCCCCCNC(=O)NC12CC3CC(CC(C3)C1)C2` [AEPU, Adamantan-1-yl-3-{5-[2-(2-ethoxyethoxy)ethoxy]pentyl}urea], in the data set on rats [3], the “carrageenan induced mechanical allodynia” value was “dose dependent decrease” and the “carrageenan induced thermal hyperalgesia” value is reported as “dose dependent decrease”. Also, the “thermal withdrawal latency in the absence of inflammation” value in the data set on rats [4] is reported as “no effect”. Moreover, the “LPS elicited thermal hyperalgesia (thermal withdrawal latency)” value in the data set on rats [4] (rats, i.pl. LPS 10 μg) is “briefly increased”. Moreover, the “spinal COX2 message after LPS” value with COX2 mRNA is on record as “significantly suppressed”. Besides, in the data set with StARD1 mRNA [5], the “adrenal gland StARD1 mRNA induced by LPS” value is “reduced”, the “brain StARD1 mRNA expression” value was “two-fold increase”, the “spinal StARD1 mRNA expression” value is recorded as “sustained” and the “testis StARD1 mRNA induced by LPS” value is on record as “not in testis”. Further, in the data set with StARD1 mRNA [6], the “spinal StARD1 expression” value is reported as “without effect”. The metabolism entry in [2] is given as “metabolized rapidly”. Besides, in data set [7], the “plasma DHET level” value was “decreased” and the “plasma PGE2 level” value is given as “decreased”. In data set [8], the “circulating / plasma progesterone level” value is given as “decreased”. Also, in data set [8] (with or without LPS), the plasma testosterone level result was “did not alter”. In data set [9], the “penetration into the brain” value is reported as “efficiently penetrated into the brain”.
What is called IC50 is the concentration needed to halve the response being measured. Lower therefore signals greater potency. As for `CC(=O)N1CCC(NC(=O)Nc2ccc(OC(F)(F)F)cc2)CC1` [TPAU], in the data set with rats [4], the “thermal withdrawal latency in the absence of inflammation” value is listed as “no effect”. Besides, the “loss of motor activity” value with rats [4] (rats) is “No loss of motor activity”. Besides, in data set [2], the metabolic stability result is given as “metabolically stable”; the “oral availability and pharmacokinetics” value was “excellent oral availability and pharmacokinetics”. The “open field activity / motor function” value in the data set with rats [10] was “did not affect motor function”. In addition, the “decrease in adrenal gland StARD1 expression” value in the data set on StARD1 mRNA [11] is 30%. On mouse sEH, the half-inhibitory concentration (IC50) stood at 97 nM. Besides, the “penetration into the brain” value in data set [9] is “efficiently penetrated into the brain”.
